Results published in patent US20180228827A1, “FIXED-DOSE COMBINATIONS OF ANTIVIRAL COMPOUNDS” (MERCK SHARP & DOHME CORP., priority 2015, published 2018).

Experiment: pH-dependent solubility profile of Compound II
Format: physicochemical
Conditions: particularly between pH 1-4

COC(=O)N[C@H](C(=O)N1CCC[C@H]1c1ncc(-c2cc(F)c3c(c2)O[C@@H](c2cnc(C4CC4)s2)n2c-3cc3cc(-c4cnc([C@@H]5CCCN5C(=O)[C@@H](NC(=O)OC)C(C)C)[nH]4)ccc32)[nH]1)C(C)C [Compound II, dimethyl ((2S,2′S)-((2S,2′S)-2,2′-(5,5′-((S)-6-(2-cyclopropylthiazol-5-yl)-1-fluoro-6H-benzo[5,6][1,3]oxazino[3,4-a]indole-3,10-diyl)bis(1H-imidazole-5,2-diyl))bis(pyrrolidine-2,1-diyl))bis(3-methyl-1-oxobutane-2,1-diyl))dicarbamate]
solubility profile: sharp pH-dependent solubility profile
